Experimental data: patent US20050249857A1, “Lignan complexes” (priority 2002, published 2005)
Converted amounts (≈) assume the structure as drawn. Read-outs that look alike come from different tables or passages of the source.

Assays:
[1] = Phase-solubility study of HMR with HP-β-CD; assay type: physicochemical; settings: for solubility at 72 h: acetate buffer, 25 °C, thermodynamic from solid, 0.16 M acetate buffer pH 5.0, μ = 0.5, 25° C., equilibration 72 hours
Protocol: The phase solubility studies with HMR was also performed with HP-β-CD (0-10%). In the case of HP-β-CD the equilibration time was 72 hours.

[2] = Chemical stability of HMR in acetate buffer with and without 2% γ-CD; assay type: physicochemical; settings: for First-order rate constant kobs for chemical degradation / shelf-life t90% for chemical degradation: 0.16 M acetate buffer pH 5.0, 30° C.; for half-life: acetate buffer, pH 5, 0.16 M acetate buffer pH 5.0, 30° C., read-out: half-life t1/2 for chemical degradation (converted)
Protocol: All the solutions were prepared by dissolving 1.5-2.0 mg of HMR into 20 ml of the solutions mentioned above, and the concentration of the remaining HMR was determined at appropriate intervals by HPLC. The pseudo-first order rate constant for overall degradation of HMR was determined from the slopes of the linear semilogarithmic plots of remaining HMR versus time. The results of the stability studies were calculated as an average of three determinations.

[3] = physchem; settings: 25 °C, pH 5, aqueous buffer, thermodynamic from solid
Protocol: (§1) The samples from the solubility and stability studies were analysed by using the HPLC system which consist of the UV-detector (L-7400), interface module (D-7000), pump (L-7100) and autosampler (L-7250, Merck Hitachi, Japan). Purospher® reversed phase column (RP-18e, 5 μm, 125×4 mm) was used in all chromatographic separations.
(§2) An excess amount of lignan or lignan ester was added to acetate buffer (0.16 M; pH 5.0; ionic strength 0.5) containing various concentrations of γ-CD (0-10%). The suspensions were shaken in the dark (25° C.) for 24 hour and the pH of the suspensions were monitored during the equilibration. The pH of suspensions was adjusted to 5.0 with HCl or NaOH if necessary. After equilibration, the suspensions were filtered through 0.45 μm membrane filters and analysed by HPLC.

[4] = Phase-solubility study with γ-CD (Higuchi and Connors); settings: 0.16 M acetate buffer pH 5.0, μ = 0.5, 25° C., equilibration 24 hours
Protocol: as §1, §2

Row | Compound | solubility at 24 h [3] | aqueous solubility ([4]; γ-CD 0 g/100 ml) | aqueous solubility ([4]; γ-CD 1 g/100 ml) | aqueous solubility ([4]; γ-CD 2 g/100 ml) | aqueous solubility ([4]; γ-CD 5 g/100 ml) | aqueous solubility ([4]; γ-CD 10 g/100 ml) | also measured
1 | COc1cc(C[C@H]2C(=O)OC[C@@H]2[C@H](O)c2ccc(O)c(OC)c2)ccc1O [HMR, hydroxymatairesinol] | 6700 µg/mL (≈ 17.9 mM) |  |  |  |  |  | effect of HP-β-CD on aqueous solubility ([1]; HP-β-CD 0-10%, pH 5.0): increases aqueous solubility; solubility at 72 h ([1]; pH 5, aqueous buffer, HP-β-CD 0 g/100 ml): 14600 µg/mL (≈ 38.9 mM); solubility at 72 h ([1]; pH 5, aqueous with cosolvent or surfactant or cyclodextrin, HP-β-CD 1 g/100 ml): 14900 µg/mL (≈ 39.8 mM); solubility at 72 h ([1]; pH 5, aqueous with cosolvent or surfactant or cyclodextrin, HP-β-CD 2 g/100 ml): 14900 µg/mL (≈ 39.9 mM); solubility at 72 h ([1]; pH 5, aqueous with cosolvent or surfactant or cyclodextrin, HP-β-CD 5 g/100 ml): 20200 µg/mL (≈ 53.8 mM); solubility at 72 h ([1]; pH 5, aqueous with cosolvent or surfactant or cyclodextrin, HP-β-CD 10 g/100 ml): 26800 µg/mL (≈ 71.7 mM); First-order rate constant kobs for chemical degradation ([2]; with 2% γ-CD): 5.71e-05 h⁻¹; shelf-life t90% for chemical degradation ([2]; with 2% γ-CD): 1845 h; First-order rate constant kobs for chemical degradation ([2]; without γ-CD): 0.000691 h⁻¹; shelf-life t90% for chemical degradation ([2]; without γ-CD): 152 h; half-life ([2]; with 2% γ-CD): 506 days; half-life ([2]; without γ-CD): 41.8 days; increase of chemical stability by 2% γ-CD ([2]; pH 5.0, with versus without 2% γ-CD): about 12 fold; kinetics of overall degradation ([2]; presence and absence of 2% γ-CD at pH 5.0): followed first-order kinetics
2 | CCCC(=O)Oc1ccc(C[C@H]2COC(=O)[C@@H]2Cc2ccc(OC(=O)CCC)c(OC)c2)cc1OC [MRdiBu, matairesinol dibutyrate] |  | —* (concentration is under the detection limit of the HPLC method employed.) | —* (concentration is under the detection limit of the HPLC method employed.) | 0.87 µg/mL (≈ 0.00174 mM) | 1.21 µg/mL (≈ 0.00243 mM) | 0.84 µg/mL (≈ 0.00168 mM) | 
3 | COc1cc(C[C@@H](CO)[C@H](CO)Cc2ccc(O)c(OC)c2)ccc1O [SECO, secoisolariciresinol] |  | 700 µg/mL (≈ 1.93 mM) | 1740 µg/mL (≈ 4.8 mM) | 2020 µg/mL (≈ 5.57 mM) | 1780 µg/mL (≈ 4.91 mM) | 390 µg/mL (≈ 1.08 mM) | 

The next lines start with results.

Row | solubility at 24 h [3] | aqueous solubility ([4]; γ-CD 0 g/100 ml) | aqueous solubility ([4]; γ-CD 1 g/100 ml) | aqueous solubility ([4]; γ-CD 2 g/100 ml) | aqueous solubility ([4]; γ-CD 5 g/100 ml) | aqueous solubility ([4]; γ-CD 10 g/100 ml) | Compound | also measured
4 |  | 750 µg/mL | 1460 µg/mL | 2070 µg/mL | 940 µg/mL | 160 µg/mL | hydroxymatairesinol diacetate [HMRdiAc] | 
5 | 490 µg/mL (≈ 1.37 mM) |  |  |  |  |  | COc1cc(C[C@H]2COC(=O)[C@@H]2Cc2ccc(O)c(OC)c2)ccc1O [MR, matairesinol] | 
